Measured values reported in patent US20250040548A1, “Herbicidal compositions comprising saflufenacil” (BASF SF, priority 2023, published 2025).

Experiments:
[1] = system: CHEAL; experiment: Post-emergence application in greenhouse trials; assay type: in vivo, Chenopodium album; settings: 21 DAT, growth stage 51, saflufenacil as commercial 342 g/l SC formulation
Method: (§1) In the examples below, using the method of S. R. Colby (1967) “Calculating synergistic and antagonistic responses of herbicide combinations”, Weeds 15, p. 22ff., the value E, which is expected if the activity of the individual active compounds is only additive, was calculated.
(§2) [formula] • where • X=percent activity using active herbicide A at an application rate a; • Y=percent activity using active saflufenacil at an application rate b; • E=expected activity (in %) by A+B at application rates a+b.
(§3) If the value found experimentally is higher than the value E calculated according to Colby, a synergistic effect is present.
(§4) The culture containers used were plastic pots containing loamy sand with approximately 3.0% of humus as substrate. The seeds of the test plants were sown separately for each species.
For the post-emergence treatment, the test plants were grown to a plant height of from 3 to 15 cm, depending on the plant habit, and only then treated with the active compounds which had been suspended or emulsified in water. To this end, the test plants were either sown directly, and grown in the same containers, or they were first grown separately as seedlings and transplanted into the test containers a few days prior to treatment. […]
The test period extended over 2 to 4 weeks. During this time, the plants were tended and their response to the individual treatments was evaluated. […]

[2] = system: SETVI; experiment: Post-emergence application in field trials (Examples 2 and 3); assay type: in vivo, Setaria viridis
Method: as §1, §2, §3
(§5) On field test sites, natural weed infestation or seeded weeds were treated post-emergence of the weeds.
(§6) For the post emergence treatment, the weedy plants were treated as indicated below. The herbicidal compositions were, together with the adjuvant(s) as indicated, suspended or emulsified in water (200 l/ha unless indicated otherwise) as distribution medium and sprayed with commercial flat fan nozzles.
(§7) In the following experiments, the herbicidal activity for the individual herbicidal compositions (solo and mixture applications) was assessed the indicated days after treatment (DAT). The assessments for the damage on undesired weeds caused by the composition was carried out using a scale from 0 to 100%, compared to the untreated control plants. Here, 0 means no damage and 100 means complete destruction of the plants.
as §6, with “I/ha” for “l/ha”

[3] = system: BRADC; experiment: Post-emergence application in greenhouse trials; assay type: in vivo, Brachiaria decumbens; settings: growth stage 12, saflufenacil as commercial 342 g/l SC formulation
Method: as §1, §2, §3, §4
For the post-emergence treatment, the test plants were grown to a plant height of from 3 to 15 cm, depending on the plant habit, and only then treated with the active compounds which had been suspended or emulsified in water. To this end, the test plants were either sown directly, and grown in the same containers, or they were first grown separately as seedlings and transplanted into the test containers a few days prior to treatment.
Depending on the species, the plants were kept at 10-25° C. and 20-35° C., respectively.
The test period extended over 2 to 4 weeks. During this time, the plants were tended and their response to the individual treatments was evaluated.
Evaluation was carried out using a scale from 0 to 100. 100 means no emergence of the plants, or complete destruction of at least the above-ground parts, and 0 means no damage or normal course of growth. A good herbicidal activity is given at values of at least 70, and very good herbicidal activity is given at values of at least 85.
Unless indicated otherwise, herbicide A and saflufenacil were formulated (50 g/I) and applied with addition of 1% MSO (methylated seed oil) as adjuvant. In the greenhouse trials, the solvent used was water (200 I/ha).

[4] = system: IPOTR; experiment: Post-emergence application in field trials (Examples 2 and 3); assay type: in vivo, Ipomoea triloba; settings: growth stage 40-41, height 65-75 cm, 21 DAT, 1% Dash ® HC
Method: as §1, §2, §3, §5, §6
as §7, with “Here, 0 means no damage and 100 means complete destruction of the plants.” left out

Compound: CC(C)N(C)S(=O)(=O)NC(=O)c1cc(-n2c(=O)cc(C(F)(F)F)n(C)c2=O)c(F)cc1Cl [B-1, saflufenacil]
- % Herbicidal activity ([1]; B-1 3.12 g ai/ha): 85%
- % Herbicidal activity ([2]; B-1 25 g ai/ha, 19 DAT, growth stage 13-19, height 2.5-10 cm, field, 1% v/v MSO and 1% w/v ammoniumsulfate): 22%
- % Herbicidal activity ([2]; SETVI, height 50-61 cm, B-1 solo 25 g ai/ha, 42 DAT, 1% v/v MSO and 2.5% AMSOL ®): 33%
- % Herbicidal activity ([3]; B-1 3.12 g ai/ha, 7 DAT): 40%
- % Herbicidal activity ([3]; B-1 3.12 g ai/ha, 21 DAT): 25%
- % Herbicidal activity ([4]; B-1 solo 25 g ai/ha): 43%

Compound: CCOC(=O)COc1ccccc1Oc1nc(-n2c(=O)cc(C(F)(F)F)n(C)c2=O)c(F)cc1Cl [A-1, ethyl 2-[2-[[3-chloro-5-fluoro-6-[3-methyl-2,6-dioxo-4-(trifluoromethyl)pyrimidin-1-yl]-2-pyridyl]oxy]phenoxy]acetate]
- % Herbicidal activity ([1]; A-1 3.12 g ai/ha): 65%
- % Herbicidal activity ([2]; A-1 12.5 g ai/ha, 19 DAT, growth stage 13-19, height 2.5-10 cm, field, 1% v/v MSO and 1% w/v ammoniumsulfate): 87%
- % Herbicidal activity ([2]; A-1 25 g ai/ha, 19 DAT, growth stage 13-19, height 2.5-10 cm, field, 1% v/v MSO and 1% w/v ammoniumsulfate): 96%
- % Herbicidal activity ([2]; SETVI, height 50-61 cm, A-1 solo 25 g ai/ha, 42 DAT, 1% v/v MSO and 2.5% AMSOL ®): 57%
- % Herbicidal activity ([3]; A-1 1.56 g ai/ha, 21 DAT): 75%
- % Herbicidal activity ([3]; A-1 3.12 g ai/ha, 7 DAT): 85%
- % Herbicidal activity ([3]; A-1 3.12 g ai/ha, 21 DAT): 85%
- % Herbicidal activity ([4]; A-1 solo 30 g ai/ha): 57%
